3 molecules from patent US5089476A, “Glutamic acid derivatives” (Roussel Uclaf, priority 1987, dated 1992) can be followed below.

What all share (format): cell-based, human
The test system of test [1] is interleukin-1 (IL-1) production by monocytes. As to the kind of experiment: Interleukin-1 (IL-1) test on monocyte culture supernatants (mouse thymocyte co-mitogenic bioassay). Particulars: thymidine incorporation by C3H/HeJ mouse thymocytes with PHA. The method, then:
The mononuclear cells of the circulating blood of normal donors were separated by the classical technique described by Boyum using a Ficoll gradient. After being washed, the mononuclear cells were incubated at 37° C. for 1 hour in the proportion of 5×10^6 monocytes (NSE^+ cells) per ml of culture medium, 5 ml per culture bottle. The culture medium used in this experiment was composed of RPMI 1640 to which antibiotics and HEPES buffer had been added. After one hour, the non-adherent cells were removed by washing the bottles with medium previously brought to 37 C, and the adherent cells, composed essentially of monocytes (>90%), were cultured again in the presence of different amounts of test products in a PBS medium (Dulbecco) without Ca^2+ or Mg^2+. Culturing was continued for 24 or 48 hours and the cell supernatants were then withdrawn, centrifuged, aliquoted and stored either at -80° C. or at -20° C. The culture supernatants were replaced in the bottles by the same amount of pyrogen-free distilled water to Lyse the cells. […]
This test was first described by Gery et al in 1972 [Gery et al, 1972 Potentiation of the T Lymphocyte response to mitogens. […] The results were expressed as the difference between the pulses per minute incorporated by the cultures in the presence of supernatants and the pulses per minute incorporated by the control cultures.

In the next test the test system is monocytes. As to the kind of experiment: Stimulation of monocytic cells with an immunostimulant. Conditions: for stimulation of monocytes: adherent blood monocytes of normal donors, cultured 24 or 48 hours with test product; for synergy with interferon-γ: in the presence of interferon-γ 10^3 U/ml, a dose at which IFN-γ alone was inactive. Here is the method:
The mononuclear cells of the circulating blood of normal donors were separated by the classical technique described by Boyum using a Ficoll gradient. After being washed, the mononuclear cells were incubated at 37° C. for 1 hour in the proportion of 5×10^6 monocytes (NSE^+ cells) per ml of culture medium, 5 ml per culture bottle. The culture medium used in this experiment was composed of RPMI 1640 to which antibiotics and HEPES buffer had been added. After one hour, the non-adherent cells were removed by washing the bottles with medium previously brought to 37 C, and the adherent cells, composed essentially of monocytes (>90%), were cultured again in the presence of different amounts of test products in a PBS medium (Dulbecco) without Ca^2+ or Mg^2+. Culturing was continued for 24 or 48 hours and the cell supernatants were then withdrawn, centrifuged, aliquoted and stored either at -80° C. or at -20° C. The culture supernatants were replaced in the bottles by the same amount of pyrogen-free distilled water to Lyse the cells. The Lysate was recovered, aliquoted and also stored at -20° C.

Test [2] deals with tumor necrosis factor (TNF) production by monocytes. As to the kind of experiment: Tumor Necrosis Factor (TNF) test on monocyte culture supernatants (toxicity on L-929 target cells). Particulars: toxicity on L-929 cells with actinomycin D. The method, then:
The mononuclear cells of the circulating blood of normal donors were separated by the classical technique described by Boyum using a Ficoll gradient. After being washed, the mononuclear cells were incubated at 37° C. for 1 hour in the proportion of 5×10^6 monocytes (NSE^+ cells) per ml of culture medium, 5 ml per culture bottle. The culture medium used in this experiment was composed of RPMI 1640 to which antibiotics and HEPES buffer had been added. After one hour, the non-adherent cells were removed by washing the bottles with medium previously brought to 37 C, and the adherent cells, composed essentially of monocytes (>90%), were cultured again in the presence of different amounts of test products in a PBS medium (Dulbecco) without Ca^2+ or Mg^2+. Culturing was continued for 24 or 48 hours and the cell supernatants were then withdrawn, centrifuged, aliquoted and stored either at -80° C. or at -20° C. The culture supernatants were replaced in the bottles by the same amount of pyrogen-free distilled water to Lyse the cells. The Lysate was recovered, aliquoted and also stored at -20° C. […]
The technique was sensitized by adding actinomycin D to the test. […] After 24 hours of culturing, the number of unlysed viable cells was measured by staining the plates with crystal violet and measuring the optical density of different wells on a multiscan reader.

In the case of `C=C(CC(NC(=O)CC[C@@H](N)C(=O)O)C(=O)O)CC(NC(=O)[C@H](C)N)C(=O)O` (stereo partly drawn) [Example 2, 2-(L-Alanylamino)-6-(γ-D-glutamylamino)-4-methyleneheptanedioic acid], the “IL-1 production by monocytes” value in test [1] is “stimulated”. For the same molecule, in the test with monocytes, the stimulation of monocytes result is “stimulated monocytes” and the “synergy with interferon-γ” value is recorded as “synergy”. Further, in test [2], the “TNF production by monocytes” value is listed as “stimulated”.
Take `C=C(CC(N)C(=O)O)CC(NC(=O)CC[C@@H](N)C(=O)O)C(=O)O` (stereo partly drawn) [Example 1, 2-amino-6-(γ-D-glutamylamino)-4-methylene-heptanedioic acid]: the “IL-1 production by monocytes” value in test [1] is recorded as “stimulated”. In the test with monocytes, the stimulation of monocytes result is “stimulated monocytes” and the “synergy with interferon-γ” value is listed as “synergy”. In test [2], the “TNF production by monocytes” value is “stimulated”.

B1: IFN-γ: interferon-γ (10^3 U/ml) added to monocyte cultures to test synergy (protein, UniProt P01579 24-161, looked up)
Interferon gamma: QDPYVKEAENLKKYFNAGHSDVADNGTLFLGILKNWKEESDRKIMQSQIVSFYFKLFKNFKDDQSIQKSVETIKEDMNVKFFNSNKKKRDDFEKLTNYSVTDLNVQRKAIHELIQVMAELSPAAKTGKRKRSQMLFRG
On to B1, for which the “activity of IFN-γ alone” value in the test with monocytes (interferon-γ 10^3 U/ml alone) is “inactive”.
